Data from patent US20230285489A1, “METHODS, COMPOSITIONS, AND KITS ADDRESSING DEPRESSED MOOD” (Centre for Addiction and Mental Health, priority 2014, published 2023).

Test: Breast milk and plasma amino acid levels and tolerability after oral tyrosine or tryptophan
Details: for amount of free amino acid in breast milk: after oral supplementation
Description: Many amino acids and most medications freely cross into breast milk. […] The reason is that approximately 98% of tryptophan in breast milk is contained in proteins and peptides and that 99% of tyrosine in breast milk is contained in proteins and peptides. Different supplementation doses of oral tyrosine (0 g (none), 2, 5 or 10 grams) (n=6 each) or oral tryptophan (0 g (none), 2 or 4 grams) (n=6 each) were evaluated for resulting levels in breast milk.

Compound | amount of free amino acid in breast milk | total tryptophan levels in breast milk (oral tryptophan 2 or 4 grams, n=6 each) | adverse effect (tryptophan 4 gram level) | total tryptophan in breast milk (tryptophan 4 gram level) | level in maternal plasma (tryptophan dose of 2 grams) | tolerability (tryptophan dose of 2 grams) | total tryptophan levels in breast milk (tryptophan dose of 2 grams) | total tyrosine levels in breast milk (oral tyrosine 2, 5 or 10 grams, n=6 each) | level in maternal plasma (tyrosine dose of 10 grams) | tolerability (tyrosine dose of 10 grams) | total tyrosine levels in breast milk (tyrosine dose of 10 grams)
N[C@@H](Cc1c[nH]c2ccccc12)C(=O)O [tryptophan, L-tryptophan] | did increase | no change | nausea | did not increase | significantly increased | extremely well tolerated | did not have any effects |  |  |  | 
N[C@@H](Cc1ccc(O)cc1)C(=O)O [tyrosine, L-tyrosine] | did increase |  |  |  |  |  |  | no change | significantly increased | extremely well tolerated | did not significantly impact
